This is an account of results in patent US11312727B1, “Macrocyclic flu endonuclease inhibitors” (Janssen BioPharma, Inc., priority 2018, dated 2022).

For data set [1], the system named is Influenza strain A549 A/WSN/33 (H1N1). In words: microbe, parasite or virus in culture. It counts as cell-based. The conditions noted are these: Influenza A virus, A549, 20 h, A549 cells, influenza A/WSN/33 (H1N1), 20 hours incubation; read-out: A549_A(H1N1) EC50.
Another data set in a line: in vitro. The conditions noted are these: human, CC50, uninfected A549 cells, CellTiter-Glo.

Regarding `CC(C)[C@@H]1/C=C/COc2cc(F)c(F)c3c2[C@H](c2ccccc2SC3)N2CN1C(=O)c1c(O)c(=O)ccn12` (single isomer, unassigned) [Compound 169BB, (9*R,17a*R,*E)-24,25-difluoro-12-hydroxy-9-isopropyl-2,6,9,17a-tetrahydro-3,4-(epiprop[1]en[1]yl[3]ylidene)-10,17-methanobenzo[6,7]thiepino[4,5-c]pyrido[1,2-f][1]oxa[5,6,9]triazacyclotridecine-11,13-dione], the EC50 (usually the concentration at which the effect is half-maximal) in data set [1] worked out at 1.3 nM. The CC50 (usually the concentration at which the toxic effect on the cells reaches its halfway point) in the data set “in vitro” was above 100 nM.

Consider `CC[C@H]1/C=C/COc2c(ccc(Cl)c2F)[C@H](c2ccccc2)N2CN1C(=O)c1c(O)c(=O)ccn12` (single isomer, unassigned) [Compound 170AA, (9*S,18*S,E)-3-chloro-9-ethyl-4-fluoro-12-hydroxy-18-phenyl-6,9-dihydro-18H-10,17-methanobenzo[b]pyrido[1,2-f][1]oxa[5,6,9]triazacyclotridecine-11,13-dione], for which the concentration for a half-maximal effect (EC50) in data set [1] is above 50 nM. Besides, the CC50 in “in vitro” is above 100 nM.

In the case of `CC[C@@H]1/C=C/COc2c(ccc(Cl)c2F)[C@H](c2ccccc2)N2CN1C(=O)c1c(O)c(=O)ccn12` (single isomer, unassigned) [Compound 170AB, (9*R,18*S,E)-3-chloro-9-ethyl-4-fluoro-12-hydroxy-18-phenyl-6,9-dihydro-18H-10,17-methanobenzo[b]pyrido[1,2-f][1]oxa[5,6,9]triazacyclotridecine-11,13-dione], the half-maximal effective concentration (EC50) in data set [1] is above 50 nM. Besides, in the data set “in vitro”, the half-maximal cytotoxic concentration (CC50) is above 100 nM.

In the case of `Cc1cccnc1[C@@H]1c2ccc(F)c(F)c2OC/C=C/C2(CCC2)N2CN1n1ccc(=O)c(O)c1C2=O` (single isomer, unassigned) [Compound 171A, (18′*S,*E)-3′,4′-difluoro-12′-hydroxy-18′-(3-methylpyridin-2-yl)-6′H,18′H-spiro[cyclobutane-1,9′-[10,17]methanobenzo[b]pyrido[1,2-f][1]oxa[5,6,9]triazacyclotridecine]-11′,13′-dione], the EC50 in data set [1] was found to be 1.3 nM. In “in vitro”, the CC50 was above 100 nM.

Consider `O=C1c2c(O)c(=O)ccn2N2CN1C1(/C=C/COc3c(ccc(F)c3F)[C@@H]2c2ccccn2)CCC1` (single isomer, unassigned) [Compound 172B, (18′*R,*E)-3′,4′-difluoro-12′-hydroxy-18′-(pyridin-2-yl)-6′H,18′H-spiro[cyclobutane-1,9′-[10,17]methanobenzo[b]pyrido[1,2-f][1]oxa[5,6,9]triazacyclotridecine]-11′,13′-dione], for which the EC50 in data set [1] is above 50 nM. The compound further gave a 50% cytotoxic concentration (CC50) in “in vitro” above 100 nM.

As to `O=C1c2c(O)c(=O)ccn2N2CN1[C@@H]1C[C@@H]1CCOc1cccc3c1[C@@H]2c1ccccc1SC3` (stereo in doubt) [Compound 166A, cis-(11a*RS,12a*RS,13S,20a*R)-15-hydroxy-6,11,11a,12,12a,20a-hexahydro-10H-7,8-(epiprop[1]en[1]yl[3]ylidene)-13,20-methanobenzo[6,7]thiepino[4,5-c]cyclopropa[j]pyrido[1,2-f][1]oxa[5,6,9]triazacyclotridecine-14,16-dione], the EC50 in data set [1] was above 50 nM. In addition, the half-maximal cytotoxic concentration (CC50) in “in vitro” was above 100 nM.

As to `O=C1c2c(O)c(=O)ccn2N2CN1CCC=CCc1ccccc1C2c1ccccc1` (centres unmarked) [Compound 1, 4-hydroxy-16-phenyl-7,8,11,16-tetrahydro-6,17-methanobenzo[k]pyrido[1,2-b][1,2,5]triazacyclotridecine-3,5-dione], the concentration giving a half-maximal response (EC50) in data set [1] came to 43 nM. Besides, the CC50 in “in vitro” is above 2000 nM.

For `O=C1c2c(O)c(=O)ccn2N2CN1CCCCCCc1ccccc1C2c1ccccc1` (centres unmarked) [Compound 2, 15-hydroxy-2-phenyl-12,13,14,16-tetrahydro-11H-1(1,3)-pyrido[2,1-f][1,2,4]triazina-3(1,2)-benzenacyclononaphane-14,16-dione], the EC50 in data set [1] is 354 nM. The CC50 in the data set “in vitro” is above 20000 nM.

On to `O=C1c2c(O)c(=O)ccn2N2CN1CCCCCc1ccccc1C2c1ccccc1` (centres unmarked) [Compound 4, 4-hydroxy-16-phenyl-7,8,9,10,11,16-hexahydro-6,17-methanobenzo[k]pyrido[1,2-b][1,2,5]triazacyclotridecine-3,5-dione], for which the EC50 in data set [1] was determined as 48 nM. Moreover, the CC50 in the data set “in vitro” was above 4000 nM.

Turning to `O=C1c2c(O)c(=O)ccn2N2CN1C/C=C\COc1ccccc1[C@H]2c1ccccc1` [Compound 5A, (18R,Z)-12-hydroxy-18-phenyl-6,9-dihydro-18H-10,17-methanobenzo[b]pyrido[1,2-f][1]oxa[5,6,9]triazacyclotridecine-11,13-dione], in data set [1], the EC50 turned out to be 8 nM. Moreover, in the data set “in vitro”, the CC50 is above 2000 nM.

Turning to `O=C1c2c(O)c(=O)ccn2N2CN1C/C=C\COc1ccccc1[C@@H]2c1ccccc1` [Compound 5B, (18S,Z)-12-hydroxy-18-phenyl-6,9-dihydro-18H-10,17-methanobenzo[b]pyrido[1,2-f][1]oxa[5,6,9]triazacyclotridecine-11,13-dione], in data set [1], the EC50 is above 1000 nM. For the same compound, the cytotoxic concentration (CC50) in the data set “in vitro” was above 2000 nM.

Take `O=C1c2c(O)c(=O)ccn2N2CN1C/C=C\COc1ccccc1C2c1ccccc1` (centres unmarked) [Compound 5]: in data set [1], the EC50 is 26 nM. The CC50 in “in vitro” is above 2000 nM.

For `O=C1c2c(O)c(=O)ccn2N2CN1C/C=C/CCOc1cccc(c1)C2c1ccccc1` (centres unmarked) [Compound 6, (*E)-15-hydroxy-2-phenyl-12,13,14,16-tetrahydro-11H-4-oxa-1(1,3)-pyrido[2,1-f][1,2,4]triazina-3(1,3)-benzenacyclononaphan-7-ene-14,16-dione], the concentration giving a half-maximal response (EC50) in data set [1] was found to be 6150 nM. This compound returned a half-maximal cytotoxic concentration (CC50) in “in vitro” above 20000 nM.

Take `O=C1c2c(O)c(=O)ccn2N2CN1CCCCOc1ccccc1C2c1ccccc1` (centres unmarked) [Compound 8, 12-hydroxy-18-phenyl-6,7,8,9-tetrahydro-18H-10,17-methanobenzo[b]pyrido[1,2-f][1]oxa[5,6,9]triazacyclotridecine-11,13-dione]: in data set [1], the concentration giving a half-maximal response (EC50) came to 59 nM. In the data set “in vitro”, this compound had a cytotoxic concentration (CC50) above 2000 nM.

For the compound `O=C1c2c(O)c(=O)ccn2N2CN1CCCCOc1ccccc1[C@H]2c1ccccc1` [Compound 8A, (18R)-12-hydroxy-18-phenyl-6,7,8,9-tetrahydro-18H-10,17-methanobenzo[b]pyrido[1,2-f][1]oxa[5,6,9]triazacyclotridecine-11,13-dione], in data set [1], the EC50 amounted to 13 nM. The cytotoxic concentration (CC50) in “in vitro” was above 2000 nM.

With `O=C1c2c(O)c(=O)ccn2N2CN1CCCCOc1ccccc1[C@@H]2c1ccccc1` [Compound 8B, (18S)-12-hydroxy-18-phenyl-6,7,8,9-tetrahydro-18H-10,17-methanobenzo[b]pyrido[1,2-f][1]oxa[5,6,9]triazacyclotridecine-11,13-dione], in data set [1], the half-maximal effective concentration (EC50) is 4130 nM. The half-maximal cytotoxic concentration (CC50) in “in vitro” is above 2000 nM.

On to `O=C1c2c(O)c(=O)ccn2N2CN1CCCCCOc1ccccc1C2c1ccccc1` (centres unmarked) [Compound 9, 15-hydroxy-2-phenyl-12,13,14,16-tetrahydro-11H-4-oxa-1(1,3)-pyrido[2,1-f][1,2,4]triazina-3(1,2)-benzenacyclononaphane-14,16-dione], for which the concentration for a half-maximal effect (EC50) in data set [1] came out at 453 nM. In “in vitro”, this compound displayed a CC50 above 2000 nM.

Regarding `O=C1c2c(O)c(=O)ccn2N2CN1CC/C=C/COc1ccccc1[C@@H]2c1ccccc1` [Compound 10A, (2S,E)-15-hydroxy-2-phenyl-12,13,14,16-tetrahydro-11H-4-oxa-1(1,3)-pyrido[2,1-f][1,2,4]triazina-3(1,2)-benzenacyclononaphan-6-ene-14,16-dione], the EC50 in data set [1] was above 1000 nM. Besides, the half-maximal cytotoxic concentration (CC50) in the data set “in vitro” is above 2000 nM.

For `O=C1c2c(O)c(=O)ccn2N2CN1CC/C=C/COc1ccccc1[C@H]2c1ccccc1` [Compound 10B, (2R,E)-15-hydroxy-2-phenyl-12,13,14,16-tetrahydro-11H-4-oxa-1(1,3)-pyrido[2,1-f][1,2,4]triazina-3(1,2)-benzenacyclononaphan-6-ene-14,16-dione], the concentration giving a half-maximal response (EC50) in data set [1] was determined as 13 nM. Also, in the data set “in vitro”, the cytotoxic concentration (CC50) is above 2000 nM.

`O=C1c2c(O)c(=O)ccn2N2CN1CCCCCCc1ccccc1C2c1ccccn1` (centres unmarked) [Compound 11, 15-hydroxy-2-(pyridin-2-yl)-12,13,14,16-tetrahydro-11H-1(1,3)-pyrido[2,1-f][1,2,4]triazina-3(1,2)-benzenacyclononaphane-14,16-dione]: in data set [1], the EC50 amounted to 363 nM. This compound also returned a cytotoxic concentration (CC50) in “in vitro” above 2000 nM.

As for `O=C1c2c(O)c(=O)ccn2N2CN1CCCCCc1ccccc1C2c1ccccn1` (centres unmarked) [Compound 12, 4-hydroxy-16-(pyridin-2-yl)-7,8,9,10,11,16-hexahydro-6,17-methanobenzo[k]pyrido[1,2-b][1,2,5]triazacyclotridecine-3,5-dione], the EC50 in data set [1] worked out at 86 nM. This compound also returned a CC50 in the data set “in vitro” above 2000 nM.

With `O=C1c2c(O)c(=O)ccn2N2CN1CC/C=C/CCc1ccccc1C2c1ccccc1` (centres unmarked) [Compound 14, (*E)-15-hydroxy-2-phenyl-12,13,14,16-tetrahydro-11H-1(1,3)-pyrido[2,1-f][1,2,4]triazina-3(1,2)-benzenacyclononaphan-6-ene-14,16-dione], the EC50 in data set [1] was found to be 48 nM. In the data set “in vitro”, this compound registered a CC50 above 4000 nM.

`O=C1c2c(O)c(=O)ccn2N2CN1CCC/C=C\Cc1ccccc1C2c1ccccn1` (centres unmarked) [Compound 15, (Z)-15-hydroxy-2-(pyridin-2-yl)-12,13,14,16-tetrahydro-11H-1(1,3)-pyrido[2,1-f][1,2,4]triazina-3(1,2)-benzenacyclononaphan-5-ene-14,16-dione]: the concentration giving a half-maximal response (EC50) in data set [1] came out at 635 nM. The compound further gave a CC50 in the data set “in vitro” above 20000 nM.

Take `O=C1c2c(O)c(=O)ccn2N2CN1C/C=C/COCc1ccccc1C2c1ccccc1` (centres unmarked) [Compound 17, (E)-15-hydroxy-2-phenyl-12,13,14,16-tetrahydro-11H-5-oxa-1(1,3)-pyrido[2,1-f][1,2,4]triazina-3(1,2)-benzenacyclononaphan-7-ene-14,16-dione]: in data set [1], the EC50 stood at 77 nM. The compound also came in with a half-maximal cytotoxic concentration (CC50) in the data set “in vitro” above 20000 nM.

As to `O=C1CCN2CN(C(c3ccccc3)c3ccccc3CN1)n1ccc(=O)c(O)c1C2=O` (centres unmarked) [Compound 18, 12-hydroxy-18-phenyl-5,8,9,18-tetrahydro-10,17-methanobenzo[k]pyrido[1,2-b][1,2,5,9]tetraazacyclotridecine-7,11,13(6H)-trione], in data set [1], the EC50 worked out at 7910 nM. In the data set “in vitro”, this compound displayed a half-maximal cytotoxic concentration (CC50) above 200000 nM.
